Results: patent publication US20230365546A1, “5-SUBSTITUTED INDOLE 3-AMIDE DERIVATIVES, PREPARATION METHOD AND USE THEREOF” (ORIGIANT PHARMACEUTICAL CO., LTD, priority 2020, published 2023)

Experiments:
Experiment in all cases: Kinase Profiler 10 μM panel
[1] = biological target: PI3 Kinase (p110a(E545K)/p85a)(m) (Mus musculus (Mouse), UniProt P42337, E545K)
Description: (§1) In vitro kinase assays were conducted using Kinase Profiler services provided by Eurofins. The experimental method was as follows: the small molecule compound to be tested (0.001-10 μM), the protein kinase to be tested were incubated with a buffer containing substrate, 10 mM magnesium acetate, and [γ-^33P-ATP], the reaction was started by adding Mg\TPmix, after incubation for a period of time at room temperature, a 3% phosphate solution was added to the buffer to stop the reaction. Subsequently, 10 μL of the reaction mixture was quantitatively pipetted onto P30 filter paper, which was washed three times with 75 mM phosphate solution and then once with methanol. The P30 filter paper was air-dried and scintillation fluid was added for scintillation counting.

[2] = biological target: Flt3(h) (Homo sapiens (Human), UniProt P36888)
Description: as §1

[3] = biological target: PI3 Kinase (p110a/p65a)(m) (Mus musculus (Mouse), UniProt P42337)
Description: as §1

[4] = biological target: ALK(h) (Homo sapiens (Human), UniProt Q9UM73)
Description: as §1

[5] = biological target: ALK1(h) (Homo sapiens (Human), UniProt P37023)
Description: as §1

[6] = biological target: A-Raf(h) (Homo sapiens (Human), UniProt P10398)
Description: as §1

[7] = biological target: GSK3β(h) (Homo sapiens (Human), UniProt P49841)
Description: as §1

[8] = biological target: HIPK2(h) (Homo sapiens (Human), UniProt Q9H2X6)
Description: as §1

[9] = biological target: PKAcβ(h) (Homo sapiens (Human), UniProt P22694)
Description: as §1

[10] = biological target: HIPK3(h) (Homo sapiens (Human), UniProt Q9H422)
Description: as §1

[11] = biological target: PKBβ(h) (Homo sapiens (Human), UniProt P31751)
Description: as §1

[12] = biological target: HPK1(h) (Homo sapiens (Human), UniProt Q92918)
Description: as §1

[13] = biological target: Blk(m) (Mus musculus (Mouse), UniProt P16277)
Description: as §1

[14] = biological target: BMPR2(h) (Homo sapiens (Human), UniProt Q13873)
Description: as §1

[15] = biological target: IGF-1R(h), activated (Homo sapiens (Human), UniProt P08069)
Description: as §1

[16] = biological target: Bmx(h) (Homo sapiens (Human), UniProt P51813)
Description: as §1

[17] = biological target: CaMKIV(h) (Homo sapiens (Human), UniProt Q16566)
Description: as §1

[18] = biological target: CaMKIγ(h) (Homo sapiens (Human), UniProt Q96NX5)
Description: as §1

[19] = biological target: LRRK2(h) (Homo sapiens (Human), UniProt Q5S007)
Description: as §1

[20] = biological target: ROCK-I(h) (Homo sapiens (Human), UniProt Q13464)
Description: as §1

[21] = biological target: MAPK1(h) (Homo sapiens (Human), UniProt P27361)
Description: as §1

[22] = biological target: SAPK3(h) (Homo sapiens (Human), UniProt P53778)
Description: as §1

[23] = biological target: CHK2(I157T)(h) (Homo sapiens (Human), UniProt O96017, I157T)
Description: as §1

[24] = biological target: SGK(h) (Homo sapiens (Human), UniProt O00141)
Description: as §1

[25] = biological target: Met(M1268T)(h) (Homo sapiens (Human), UniProt P08581, M1250T)
Description: as §1

[26] = biological target: MKK3(h) (Homo sapiens (Human), UniProt P46734)
Description: as §1

[27] = biological target: cKit(h) (Homo sapiens (Human), UniProt P10721)
Description: as §1

[28] = biological target: SRPK2(h) (Homo sapiens (Human), UniProt P78362)
Description: The experimental method was as follows: the small molecule compound to be tested (0.001-10 μM), the protein kinase to be tested were incubated with a buffer containing substrate, 10 mM magnesium acetate, and [γ-^33P-ATP], the reaction was started by adding Mg\TPmix, after incubation for a period of time at room temperature, a 3% phosphate solution was added to the buffer to stop the reaction. Subsequently, 10 μL of the reaction mixture was quantitatively pipetted onto P30 filter paper, which was washed three times with 75 mM phosphate solution and then once with methanol. The P30 filter paper was air-dried and scintillation fluid was added for scintillation counting.

[29] = biological target: CLK1(h) (Homo sapiens (Human), UniProt P49759)
Description: as §1

[30] = biological target: DRAK2(h) (Homo sapiens (Human), UniProt O94768)
Description: as §1

[31] = biological target: TSSK1(h) (Homo sapiens (Human), UniProt Q9BXA7)
Description: as §1

[32] = biological target: EGFR(T790M,L858R)(h) (Homo sapiens (Human), UniProt P00533, L858R/T790M)
Description: as §1

[33] = biological target: PDGFRα(V561D)(h) (Homo sapiens (Human), UniProt P16234, V561D)
Chain of PDGFRα(V561D)(h) (P16234 24-1089 V561D): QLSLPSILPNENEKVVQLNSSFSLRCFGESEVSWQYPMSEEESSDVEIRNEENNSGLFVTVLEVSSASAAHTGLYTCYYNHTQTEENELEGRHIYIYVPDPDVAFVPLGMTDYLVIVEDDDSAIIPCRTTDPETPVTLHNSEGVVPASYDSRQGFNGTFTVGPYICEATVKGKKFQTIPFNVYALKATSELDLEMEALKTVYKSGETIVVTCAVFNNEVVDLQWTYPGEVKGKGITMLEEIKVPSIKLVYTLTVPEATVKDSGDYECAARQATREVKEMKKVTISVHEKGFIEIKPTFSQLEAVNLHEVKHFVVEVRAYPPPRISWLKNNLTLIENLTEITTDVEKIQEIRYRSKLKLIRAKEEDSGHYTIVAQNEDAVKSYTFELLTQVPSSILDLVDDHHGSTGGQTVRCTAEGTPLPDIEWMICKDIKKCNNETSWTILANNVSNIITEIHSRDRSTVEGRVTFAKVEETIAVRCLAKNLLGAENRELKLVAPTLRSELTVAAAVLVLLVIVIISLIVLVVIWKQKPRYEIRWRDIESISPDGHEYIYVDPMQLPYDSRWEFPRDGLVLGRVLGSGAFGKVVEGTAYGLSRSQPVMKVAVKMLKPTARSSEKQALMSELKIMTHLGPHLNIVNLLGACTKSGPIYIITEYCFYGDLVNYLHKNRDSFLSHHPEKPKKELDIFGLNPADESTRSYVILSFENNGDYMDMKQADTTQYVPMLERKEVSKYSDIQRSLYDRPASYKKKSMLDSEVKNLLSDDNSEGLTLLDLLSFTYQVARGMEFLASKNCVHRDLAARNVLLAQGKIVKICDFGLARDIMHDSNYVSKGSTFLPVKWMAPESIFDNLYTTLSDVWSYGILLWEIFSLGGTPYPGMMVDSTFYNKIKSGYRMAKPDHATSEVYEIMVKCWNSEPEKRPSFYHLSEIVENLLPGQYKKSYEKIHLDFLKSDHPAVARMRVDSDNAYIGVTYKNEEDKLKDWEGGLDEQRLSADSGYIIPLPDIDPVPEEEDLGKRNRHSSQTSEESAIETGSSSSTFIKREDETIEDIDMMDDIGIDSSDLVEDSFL
Description: as §1

Chain of Bmx(h) (P51813 whole entry): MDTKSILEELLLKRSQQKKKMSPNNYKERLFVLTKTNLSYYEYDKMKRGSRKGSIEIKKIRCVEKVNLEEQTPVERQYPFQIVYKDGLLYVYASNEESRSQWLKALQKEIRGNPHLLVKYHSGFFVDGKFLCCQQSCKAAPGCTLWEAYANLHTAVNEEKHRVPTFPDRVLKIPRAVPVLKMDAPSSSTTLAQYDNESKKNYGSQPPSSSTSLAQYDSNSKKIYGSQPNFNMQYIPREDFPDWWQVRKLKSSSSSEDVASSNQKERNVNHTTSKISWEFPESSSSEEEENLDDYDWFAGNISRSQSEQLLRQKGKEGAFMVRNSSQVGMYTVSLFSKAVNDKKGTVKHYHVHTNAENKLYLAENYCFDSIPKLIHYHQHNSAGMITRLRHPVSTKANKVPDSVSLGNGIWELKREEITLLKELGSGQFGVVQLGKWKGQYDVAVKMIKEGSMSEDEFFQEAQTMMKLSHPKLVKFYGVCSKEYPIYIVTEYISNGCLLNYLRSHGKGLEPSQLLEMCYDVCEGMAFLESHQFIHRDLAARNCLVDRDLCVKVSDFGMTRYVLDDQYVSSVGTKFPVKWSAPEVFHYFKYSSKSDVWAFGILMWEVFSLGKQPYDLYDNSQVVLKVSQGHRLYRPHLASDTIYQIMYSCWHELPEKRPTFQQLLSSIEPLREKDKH
Chain of HPK1(h) (Q92918 whole entry): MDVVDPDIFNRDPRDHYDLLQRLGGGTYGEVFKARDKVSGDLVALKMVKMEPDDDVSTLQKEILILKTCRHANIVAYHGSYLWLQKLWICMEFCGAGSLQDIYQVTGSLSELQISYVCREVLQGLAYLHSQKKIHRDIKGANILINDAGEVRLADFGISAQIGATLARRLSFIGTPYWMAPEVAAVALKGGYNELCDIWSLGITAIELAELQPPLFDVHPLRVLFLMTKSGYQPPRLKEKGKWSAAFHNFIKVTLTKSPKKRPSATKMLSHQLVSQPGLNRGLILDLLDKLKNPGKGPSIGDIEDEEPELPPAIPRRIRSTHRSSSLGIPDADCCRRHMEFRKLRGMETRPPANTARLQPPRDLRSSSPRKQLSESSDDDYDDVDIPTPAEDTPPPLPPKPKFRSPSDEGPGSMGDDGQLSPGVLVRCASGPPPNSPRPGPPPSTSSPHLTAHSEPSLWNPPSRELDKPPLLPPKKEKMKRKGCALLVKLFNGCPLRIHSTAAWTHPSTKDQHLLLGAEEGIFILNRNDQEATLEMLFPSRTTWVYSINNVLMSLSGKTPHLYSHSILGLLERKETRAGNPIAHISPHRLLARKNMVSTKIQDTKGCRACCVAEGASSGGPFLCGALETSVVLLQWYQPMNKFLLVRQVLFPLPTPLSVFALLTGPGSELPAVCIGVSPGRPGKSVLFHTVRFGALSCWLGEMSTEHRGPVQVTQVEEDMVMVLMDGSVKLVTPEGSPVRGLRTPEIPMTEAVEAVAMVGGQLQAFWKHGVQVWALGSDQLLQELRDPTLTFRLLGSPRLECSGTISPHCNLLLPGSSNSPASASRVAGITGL
Chain of GSK3β(h) (P49841 whole entry): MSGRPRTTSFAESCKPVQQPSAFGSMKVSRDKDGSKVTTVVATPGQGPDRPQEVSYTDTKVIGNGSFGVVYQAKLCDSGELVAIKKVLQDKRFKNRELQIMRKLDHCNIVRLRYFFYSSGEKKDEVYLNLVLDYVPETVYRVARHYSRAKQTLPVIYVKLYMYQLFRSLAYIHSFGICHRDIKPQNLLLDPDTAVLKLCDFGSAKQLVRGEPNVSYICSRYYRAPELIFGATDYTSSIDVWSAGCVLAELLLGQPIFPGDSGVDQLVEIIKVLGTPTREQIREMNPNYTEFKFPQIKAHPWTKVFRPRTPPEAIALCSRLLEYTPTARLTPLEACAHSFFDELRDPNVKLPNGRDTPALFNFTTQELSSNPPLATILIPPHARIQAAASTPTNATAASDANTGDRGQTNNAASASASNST
Chain of Flt3(h) (P36888 27-993): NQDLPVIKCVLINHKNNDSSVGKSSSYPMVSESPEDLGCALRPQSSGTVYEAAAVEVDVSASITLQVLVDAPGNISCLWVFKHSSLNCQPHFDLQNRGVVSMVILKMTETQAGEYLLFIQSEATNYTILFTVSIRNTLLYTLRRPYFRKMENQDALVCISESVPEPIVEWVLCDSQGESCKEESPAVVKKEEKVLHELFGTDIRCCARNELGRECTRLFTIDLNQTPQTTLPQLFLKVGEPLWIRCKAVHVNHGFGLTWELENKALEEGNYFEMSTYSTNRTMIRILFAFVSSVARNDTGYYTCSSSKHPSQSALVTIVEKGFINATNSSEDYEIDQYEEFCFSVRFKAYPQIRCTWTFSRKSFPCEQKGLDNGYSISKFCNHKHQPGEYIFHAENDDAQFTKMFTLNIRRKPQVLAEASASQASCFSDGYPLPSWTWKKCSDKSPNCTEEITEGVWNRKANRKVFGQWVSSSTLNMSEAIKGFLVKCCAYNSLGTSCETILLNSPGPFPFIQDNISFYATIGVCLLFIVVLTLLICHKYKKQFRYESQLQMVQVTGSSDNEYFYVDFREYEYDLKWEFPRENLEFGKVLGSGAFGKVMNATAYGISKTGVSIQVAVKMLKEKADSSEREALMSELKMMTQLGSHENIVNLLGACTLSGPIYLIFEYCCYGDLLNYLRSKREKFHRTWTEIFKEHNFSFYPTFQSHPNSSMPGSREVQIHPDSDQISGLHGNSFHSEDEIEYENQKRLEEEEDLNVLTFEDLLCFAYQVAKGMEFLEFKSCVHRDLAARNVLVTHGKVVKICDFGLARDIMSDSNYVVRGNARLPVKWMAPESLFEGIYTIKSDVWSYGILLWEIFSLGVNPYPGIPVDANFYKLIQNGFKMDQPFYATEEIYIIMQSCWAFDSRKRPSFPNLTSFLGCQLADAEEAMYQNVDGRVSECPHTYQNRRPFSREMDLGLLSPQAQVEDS
Chain of MAPK1(h) (P27361 whole entry): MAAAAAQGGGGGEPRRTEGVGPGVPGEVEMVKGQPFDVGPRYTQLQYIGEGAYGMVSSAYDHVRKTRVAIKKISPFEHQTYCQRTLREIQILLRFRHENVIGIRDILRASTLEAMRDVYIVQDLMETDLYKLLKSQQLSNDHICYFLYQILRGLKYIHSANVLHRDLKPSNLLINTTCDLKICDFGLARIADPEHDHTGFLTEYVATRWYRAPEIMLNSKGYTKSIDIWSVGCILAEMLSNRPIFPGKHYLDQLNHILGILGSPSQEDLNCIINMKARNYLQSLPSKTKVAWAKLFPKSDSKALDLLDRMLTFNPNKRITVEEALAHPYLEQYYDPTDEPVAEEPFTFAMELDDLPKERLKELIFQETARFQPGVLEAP
Chain of SRPK2(h) (P78362 whole entry): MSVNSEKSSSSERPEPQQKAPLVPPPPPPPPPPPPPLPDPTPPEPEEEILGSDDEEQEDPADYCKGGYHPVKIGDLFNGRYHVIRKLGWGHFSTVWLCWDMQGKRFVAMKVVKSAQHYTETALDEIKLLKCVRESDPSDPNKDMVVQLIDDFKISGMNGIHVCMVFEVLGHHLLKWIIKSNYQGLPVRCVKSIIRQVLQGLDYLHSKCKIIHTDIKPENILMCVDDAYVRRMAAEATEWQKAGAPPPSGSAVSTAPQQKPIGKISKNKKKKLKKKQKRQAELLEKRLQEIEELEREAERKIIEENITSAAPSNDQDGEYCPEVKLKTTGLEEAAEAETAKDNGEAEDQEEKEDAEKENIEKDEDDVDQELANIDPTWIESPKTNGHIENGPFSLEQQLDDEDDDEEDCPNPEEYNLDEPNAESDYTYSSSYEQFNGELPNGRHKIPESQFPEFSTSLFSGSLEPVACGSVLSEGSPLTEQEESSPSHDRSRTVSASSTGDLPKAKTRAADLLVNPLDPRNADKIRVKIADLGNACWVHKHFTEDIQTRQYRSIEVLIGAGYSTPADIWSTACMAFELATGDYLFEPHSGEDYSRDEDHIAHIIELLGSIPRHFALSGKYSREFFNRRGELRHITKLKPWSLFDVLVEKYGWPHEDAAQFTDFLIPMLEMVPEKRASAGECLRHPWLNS

## C[C@H](NC(=O)c1c[nH]c2ccc(-c3ccc4nc(NC(=O)C5CC5)sc4c3)cc12)c1cccc(F)c1 [Compound 34, (S)-5-(2-(cyclopropanecarboxamido)benzo[d]thiazol-6-yl)-N-(1-(3-fluorophenyl)ethyl)-1H-indole-3-carboxamide]
[1]
  Inhibition ratio: 24%
[2]
  Inhibition ratio: 79%
[3]
  Inhibition ratio: 30%
[4]
  Inhibition ratio: 48%
[5]
  Inhibition ratio: 50%
[6]
  Inhibition ratio: −1%
[7]
  Inhibition ratio: 13%
[8]
  Inhibition ratio: 66%
[9]
  Inhibition ratio: −4%
[10]
  Inhibition ratio: 79%
[11]
  Inhibition ratio: 12%
[12]
  Inhibition ratio: 75%
[13]
  Inhibition ratio: 65%
[14]
  Inhibition ratio: 30%
[15]
  Inhibition ratio: 21%
[16]
  Inhibition ratio: 54%
[17]
  Inhibition ratio: 20%
[18]
  Inhibition ratio: 7%
[19]
  Inhibition ratio: 30%
[20]
  Inhibition ratio: 15%
[21]
  Inhibition ratio: 25%
[22]
  Inhibition ratio: 84%
[23]
  Inhibition ratio: 24%
[24]
  Inhibition ratio: 2%
[25]
  Inhibition ratio: 93%
[26]
  Inhibition ratio: 35%
[27]
  Inhibition ratio: 4%
[28]
  Inhibition ratio: 17%
[29]
  Inhibition ratio: 80%
[30]
  Inhibition ratio: 18%
[31]
  Inhibition ratio: 12%
[32]; EGFR(T790M,L858R)(h)
  Inhibition ratio: 84%
[33]; PDGFRα(V561D)(h)
  Inhibition ratio: 99%

## C[C@H](NC(=O)c1cn(C)c2ccc(-c3ccn4nc(NC(=O)C5CC5)nc4c3)cc12)c1cccc(F)c1 [Compound 94, (S)-5-(2-(cyclopropanecarboxamido)-[1,2,4]triazolo[1,5-a]pyridin-7-yl)-N-(1-(3-fluorophenyl)ethyl)-1-methyl-1H-indole-3-carboxamide]
[1]
  Inhibition ratio/%: 32%
[2]
  Inhibition ratio/%: 27%
[3]
  Inhibition ratio/%: 10%
[4]
  Inhibition ratio/%: −7%
[5]
  Inhibition ratio/%: 0%
[6]
  Inhibition ratio/%: 10%
[7]
  Inhibition ratio/%: 1%
[8]
  Inhibition ratio/%: 36%
[9]
  Inhibition ratio/%: 40%
[10]
  Inhibition ratio/%: 62%
[11]
  Inhibition ratio/%: −8%
[12]
  Inhibition ratio/%: −3%
[13]
  Inhibition ratio/%: 77%
[14]
  Inhibition ratio/%: −6%
[15]
  Inhibition ratio/%: −17%
[16]
  Inhibition ratio/%: 34%
[17]
  Inhibition ratio/%: 21%
[18]
  Inhibition ratio/%: −13%
[19]
  Inhibition ratio/%: 10%
[20]
  Inhibition ratio/%: −10%
[21]
  Inhibition ratio/%: 33%
[22]
  Inhibition ratio/%: 46%
[23]
  Inhibition ratio/%: 61%
[24]
  Inhibition ratio/%: 51%
[25]
  Inhibition ratio/%: −10%
[26]
  Inhibition ratio/%: 38%
[27]
  Inhibition ratio/%: 21%
[28]
  Inhibition ratio/%: −16%
[29]
  Inhibition ratio/%: 80%
[30]
  Inhibition ratio/%: 37%
[31]
  Inhibition ratio/%: −8%
[32]; EGFR(T790M, L858R)(h)
  Inhibition ratio/%: 52%
[33]; printed in Table 4 as PDGFRβ (V561D)(h)
  Inhibition ratio/%: 38%
